Where “and” joins values, the source holds several entries; their conditions need not be identical. Equal values may be shown once.
Tests used:
MSCs = assay: CID-induced apoptosis of iCasp9-ΔCD19 transduced undifferentiated MSCs
[1] = tested on: EBV-specific and CMV-specific T cells; assay: Pentamer analysis of virus-specific T cells after dimerizer; assay type: cell-based, human; details: 10 nM after 4 days reactivation with allogeneic PBMC
MT-2 = assay: CID-induced apoptosis (annexin V) in transduced MT-2 cells; assay type: cell-based, human; details: 8 hours
[2] = tested on: EBV-specific CTL lines (EBV-CTL); assay: CID-induced elimination/apoptosis of transduced EBV-CTLs (GFP, annexin V/7-AAD flow cytometry); assay type: cell-based, human; details: for elimination of GFP+ cells: GFPhigh
human CD3+/GFP+ T cells = assay: SCID mouse-human xenograft: elimination of iCasp9M-transduced CTLs in tumors; assay type: in vivo, NOD/SCID mice; details: single dose 50 μg intraperitoneally, versus carrier, 3 days after
Method: Non-obese diabetic severe combined immunodeficient (NOD/SCID) mice, 6 to 8 weeks of age, were irradiated (250 rad) and injected subcutaneously in the right flank with 10×10^6 to 15×10^6 LCLs resuspended in Matrigel (BD Bioscience). Two weeks later mice bearing tumors that were approximately 0.5 cm in diameter were injected into the tail vein with a 1:1 mixture of nontransduced and iCasp9.I.GFPhigh-transduced EBV CTLs (total 15×10^6). At 4 to 6 hours prior and 3 days after CTL infusion, mice were injected intraperitoneally with recombinant hIL-2 (2000 U; Proleukin; Chiron). […] By FACS analysis, the number of GFP+ cells within the gated CD3^+ population was evaluated. […]
The function of iCasp9M also was evaluated in transduced EBV-CTLs in vivo. […] Three days after CID/carrier administration, tumors were analyzed for human CD3^+/GFP^+ cells. […]
The function of iCasp9M in vivo, was assayed. […] On day 3 after CTL administration, mice received either CID (50 μg AP20187; (black diamonds, n=6) or carrier only (black squares, n=5) and on day 6 the presence of human CD3+/GFP+ T cells in the tumors was analyzed. Human CD3+ T cells isolated from the tumors of a control group of mice that received only nontransduced CTLs (15×10^6 CTLs; n=4) were used as a negative control for the analysis of CD3+/GFP+ T cells within the tumors.

Jurkat = assay: CID-induced apoptosis (annexin V) in transduced Jurkat cells; assay type: cell-based, human; details: iFas-transduced Jurkat, 10 nM, 8 hours
[3] = T cells selected for high expression, overnight 10 nM

In the case of CC[C@H](C(=O)N1CCCC[C@H]1C(=O)O[C@H](CCc1ccc(OC)c(OC)c1)c1cccc(OCC(=O)NCC(CNC(=O)COc2cccc([C@@H](CCc3ccc(OC)c(OC)c3)OC(=O)[C@@H]3CCCCN3C(=O)[C@@H](CC)c3cc(OC)c(OC)c(OC)c3)c2)CN(C)C)c1)c1cc(OC)c(OC)c(OC)c1 [AP20187], the apoptosis index (MSCs; iCasp9-negative MSCs, 50 nM, 24 hrs, listed as CID) is reported as 20±7% and 19%, the apoptotic death (MSCs; iCasp9-positive MSCs, 50 nM, 24 hrs) is reported as 93±1% and the apoptotic cells (MSCs; magnetically immunoselected iCasp9-CD19-positive MSCs) is reported as “More than 95%”. For the same compound, the annexin positive cells (MSCs; non-transduced control MSC (Control/CID), 50 nM) was 15%, the “effect on virus-specific T cells (HLA pentamers, EBV and CMV)” value [1] was “spares (and thereby enriches) viral reactive subpopulations” and the “apoptotic cells (annexin-V)” value (MT-2; iCasp9M-transduced MT-2, 10 nM) was 57.9%+/−11.9. For the same compound, the “apoptotic cells (annexin-V)” value (MT-2; iFas-transduced MT-2, 10 nM) was 19.3%+/−8.4, the “concentration sufficient to obtain the maximal deletion effect” value ([2]; F-Casp9M.I.GFPhigh, survival of GFP+ cells on day 7) was 1 nM and the “time to apoptotic characteristics (cell shrinkage and fragmentation)” value ([2]; GFPhigh-selected cells, 10 nM) was no more than 14 h. The “deletion of transduced cells” value ([2]; GFPhigh-selected iCasp9M cells, 10 nM, day 7) was 99.1%, the “apoptotic (annexin-V+/7-AAD−) phenotype” value [2, 3] was 64% and the “necrotic (annexinV+/7-AAD+) phenotype” value [2, 3] was 30%. For the same compound, the “reduction in mean fluorescence intensity of GFP in surviving CTLs” value ([2]; iCasp9M-transduced CTLs after CID) was 70%, the “elimination of GFP+ cells” value ([2]; iCasp9M-transduced CTLs, 10 nM, day 7) was 99.2%+/−0.14 and the “elimination of GFP+ cells” value ([2]; iFas-transduced CTLs, 10 nM, day 7) was 89.3%+/−4.9. The “reduction in the number of human CD3+/GFP+ T cells in tumors” value (human CD3+/GFP+ T cells) was greater than 99% and the “apoptotic cells (annexin-V)” value (Jurkat) was 56.4%+/−15.6.

— US20220152100A1, “METHODS FOR CONTROLLED ACTIVATION OR ELIMINATION OF THERAPEUTIC CELLS” (Bellicum Pharmaceuticals, Inc., priority 2014, published 2022)
